Data: patent publication US10822331B2, “Processes for preparing ATR inhibitors” (Vertex Pharmaceuticals Incorporated, priority 2011, dated 2020)

Test system: HCT116 colorectal cancer cells
Experiment: Cisplatin sensitization assay (96 h MTS cell viability)
Format: cell-based
Details: concentration of compound required to reduce the IC50 of Cisplatin alone by at least 3-fold, HCT116, 96 h
Method: Compounds can be screened for their ability to sensitize HCT116 colorectal cancer cells to Cisplatin using a 96 h cell viability (MTS) assay. […] Compounds and Cisplatin are then both added simultaneously to the cell media in 2-fold serial dilutions from a top final concentration of […] as a full matrix of concentrations in a final cell volume of 200 μl, and the cells are then incubated at 37° C. in 5% CO2. After 96 h, 40 μl of MTS reagent (Promega G358a) is added to each well and the cells are incubated for 1 h at 37° C. in 5% CO2.

Structure (SMILES) | Cisplatin sensitization
[2H]C([2H])(NC)c1ccc(-c2cc(-c3nc(-c4ccc(S(=O)(=O)C(C)C)cc4)cnc3N)on2)cc1 [II-1, 3-[3-[4-[dideuterio(methylamino)methyl]phenyl]isoxazol-5-yl]-5-(4-isopropylsulfonylphenyl)pyrazin-2-amine] | 39 nM
[2H]C([2H])([2H])NCc1ccc(-c2cc(-c3nc(-c4ccc(S(=O)(=O)C(C)C)cc4)cnc3N)on2)cc1 [II-3, 5-(4-isopropylsulfonylphenyl)-3-[3-[4-[(trideuteriomethylamino)methyl]phenyl]isoxazol-5-yl]pyrazin-2-amine] | 39 nM
[2H]C([2H])([2H])NC([2H])([2H])c1ccc(-c2cc(-c3nc(-c4ccc(S(=O)(=O)C(C)C)cc4)cnc3N)on2)cc1 [II-2, 3-[3-[4-[dideuterio-(trideuteriomethylamino)methyl]phenyl]isoxazol-5-yl]-5-(4-isopropylsulfonylphenyl)pyrazin-2-amine] | 29 nM
